Literature values in patent publication US6344444B1 (Nutrition 21, priority 1997, dated 2002).

Key:
[1] = test system: cholesterol-induced intimal hyperplasia; conditions: rabbits, injection or ingestion
femoral density = conditions: postmenopausal women, injection 50 mg twice weekly, over 14 months
bone turnover = conditions: ovariectomized rats, oral

Compound | intimal thickening and fragmentation of arterial elastic fibers [1] | increase of femoral density (average) (femoral density) [%] | bone formation rate (bone turnover) | bone turnover (bone turnover)
C[Si](O)(O)O [monomethyltrisilanol] | prevented | 4.7 | – | –
orthosilicic acid | – | – | increased | slowed
NCCCC[C@H](N)C(=O)O.O[Si](O)(O)O [lysine silicate] | prevented | – | – | –
